The values that follow are results of earlier work, collected in patent publication US20070178051A1, “STERILIZED NANOPARTICULATE GLUCOCORTICOSTEROID FORMULATIONS” (Elan Pharma International, Ltd., priority 2006, published 2007).

Regarding `CCCC1O[C@@H]2C[C@H]3C4CCC5=CC(=O)C=CC5(C)[C@H]4[C@@H](O)CC3(C)C2(C(=O)CO)O1` (mixture of isomers) [Budesonide, (RS)-11,16,17,21-Tetrahydroxy-pregna-1,4-diene-3,20-dione cyclic 16,17-acetal with butraldehyde], the solubility in water result is “practically insoluble”. In addition, the solubility in chloroform entry (chloroform) is “freely soluble”. For the same compound, the solubility in ethanol entry (ethanol) is on record as “sparingly soluble”. For the same compound, the solubility in heptane result (heptane) is on record as “practically insoluble”.

As for `CCC(=O)O[C@]1(C(=O)SCF)[C@H](C)C[C@H]2[C@@H]3C[C@H](F)C4=CC(=O)C=C[C@]4(C)[C@@]3(F)[C@@H](O)C[C@@]21C` [Fluticasone propionate, S-(fluoromethyl) 6a,9-difluoro-11b, 17-dihydroxy-16a-methyl-3-oxoandrosta-1,4-diene-17b-carbothioate, 17-propionate], the solubility in water entry is reported as “practically insoluble”.
